Reference: PubChem BioAssay (NCI)
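Briefly, cells in 96-well plates were exposed to five compound concentrations for 48 h, and endpoints were estimated by linear interpolation. At the GI50, growth is halved. At the TGI there is no net growth.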

How the values were obtained:
Test in all cases: DTP human tumour cell line panel, 48 h
MOLT-4 leukemia = tested on: MOLT-4 leukemia
SF-539 CNS = tested on: SF-539 CNS
HS 578T breast = tested on: HS 578T breast
NCI-H226 lung = tested on: NCI-H226 lung
SK-MEL-5 melanoma = tested on: SK-MEL-5 melanoma
MALME-3M melanoma = tested on: MALME-3M melanoma
SR leukemia = tested on: SR leukemia
HCT-15 colon = tested on: HCT-15 colon
A498 renal = tested on: A498 renal
CAKI-1 renal = tested on: CAKI-1 renal

Row | SMILES | GI50 (MOLT-4 leukemia) [µM] | TGI (MOLT-4 leukemia) [µM] | GI50 (SF-539 CNS) [µM] | TGI (SF-539 CNS) [µM] | GI50 (HS 578T breast) [µM] | TGI (HS 578T breast) [µM] | GI50 (NCI-H226 lung) [µM] | TGI (NCI-H226 lung) [µM] | GI50 (SK-MEL-5 melanoma) [µM] | TGI (SK-MEL-5 melanoma) [µM] | GI50 (MALME-3M melanoma) [µM] | TGI (MALME-3M melanoma) [µM] | GI50 (SR leukemia) [µM] | TGI (SR leukemia) [µM] | GI50 (HCT-15 colon) [µM] | TGI (HCT-15 colon) [µM] | GI50 (A498 renal) [µM] | TGI (A498 renal) [µM] | GI50 (CAKI-1 renal) [µM] | TGI (CAKI-1 renal) [µM]
1 | COc1ccc(/C=C/C(=O)c2ccc3cc(OC)c(OC)cc3c2)cc1OC | 3.07 | 9.53 | 2.94 | 10.4 | 3.77 | 41.2 | 2.97 | 13.5 | 2.3 | 6.61 | 13.6 | 30.2 | 1.69 | > 100 | 2.69 | 40.8 | 2.66 | 23.1 | 4.29 | 65.4
2 | COc1ccc2c(c1)sc1nc(-c3ccccc3)c(-c3ccc(O)c(OC)c3)n12 | 12.8 | > 100 | 6.63 | > 100 | > 100 | > 100 | 22 | > 100 | 3.64 | > 100 | > 100 | > 100 | 3.34 | > 100 | 4.03 | > 100 | 28.3 | > 100 | 8.54 | > 100
3 | COC(=O)c1ccc2c(c1)C(=O)c1c-2n(CCCN)c(=O)c2cc([N+](=O)[O-])ccc12 | < 0.01 | 0.833 | < 0.0196 | 0.21 | 0.422 | 1.15 | 0.102 | 1.67 | < 0.0405 | 0.8 | 0.038 | 1.36 | < 0.01 | 0.367 | 0.0625 | 0.56 | 0.116 | 1.44 | < 0.01 | 1.36
4 | C=CC(=O)N1CCC([C@@H]2CCNc3c(C(N)=O)c(-c4ccc(Oc5ccccc5)cc4)nn32)CC1 | 15.9 | > 93.6 | 16.8 | 56.4 | 14.7 | 46.8 | 11.9 | 42.5 | 14.5 | 28.7 | 11.6 | 26.8 | 23.9 | > 100 | 15.3 | 46.5 | 1.67 | 9.25 | 10.4 | 44.7
5 | N#Cc1cccc(/C=C(/C(=O)c2ccccc2)c2ccccc2)c1 | 3.19 | 23.4 | 5.55 | 18.4 | 2.9 | 33.6 | 6.45 | 26.7 | 4.04 | 15.6 | 9.61 | 27.8 | 2.94 | > 100 | 3.4 | 22.8 | 4.08 | 17.2 | 3.92 | 16.1
6 | O=C(O)c1ccc(NCc2nc3cc4ccccc4cc3[nH]2)cc1 |  | > 100 |  | > 100 |  | > 100 |  | > 100 |  | > 72.7 |  | 0.237 |  | > 100 |  | > 100 |  | > 100 |  | > 100
7 | c1ccc(-c2nnc(Nc3ccc4c(c3)OCCO4)o2)c(NCc2ccncc2)c1 | 0.0485 | > 100 | 0.0283 | 6.01 | 0.0281 | > 69.4 | 0.0264 | 0.106 | 0.0257 | 0.153 | 0.68 | > 67.3 | < 0.01 | > 46.5 | 0.0369 | > 100 | 0.0226 | 0.533 | 0.16 | > 100
8 | S=C=NCc1ccccc1 |  | 4.37 |  | 3.79 |  | 53.6 |  | 15 |  | 7.76 |  | 19.6 |  | 12.1 |  | 11.1 |  | 14 |  | 4.26
9 | CN1CCN(Cc2ccc(NC(=O)c3nc4ccc5[nH]ncc5c4c4c3CCC4)cc2C(F)(F)F)CC1 | 1.1 | 2.58 | 0.879 | 1.58 | 0.833 | 1.65 | 2.23 | 11.3 | 7.47 | 14.1 | 0.8 | 1.52 | 1.1 | 2.68 | 0.87 | 1.75 | 6.62 | 13.4 | 0.815 | 1.56
10 | CN(C)CCNC(=O)Cn1ccc(=O)c2ccc([N+](=O)[O-])cc21 |  | > 100 |  | > 100 |  | > 100 |  | > 100 |  | > 100 |  | > 100 |  | > 100 |  | > 100 |  | > 100 |  | > 100
